The text below walks through data of publication PMC10179475, “Flavone and Hydroxyflavones Are Ligands That Bind the Orphan Nuclear Receptor 4A1 (NR4A1)” (International Journal of Molecular Sciences, 2023).

“Also recorded” adds a separate entry of the source. Read-outs that look alike come from different tables or passages of the source.

The target in data set [1] is T1, GAL4-NR4A1 (Homo sapiens, UniProt P22736). In words: NR4A1-dependent transactivation, GAL4-NR4A1/UAS-luc, Rh30 cells. Details: expressed in transfected cells; host or cells: Rh30 rhabdomyosarcoma cells. Type of data set: cell-based. The note with it: for effect on NR4A1-dependent transactivation: 50 µM.
For data set [2], the target named is T1, GAL4-NR4A1. The data set can be described thus: NR4A1-dependent transactivation, GAL4-NR4A1/UAS-luc, Panc1 cells. Details: expressed in transfected cells; host or cells: Panc1 pancreatic cancer cells; Rh30 rhabdomyosarcoma cells. The following applies: for effect on luciferase activity: 25 or 50 µM, p < 0.05. The data set is classed as cell-based. The protocol:
Figure 3 Hydroxyflavonoid activation of NR4A1-dependent transactivation. Panc1 cells were cotransfected with GAL4-NR4A1 and UAS-luciferase constructs, cells were treated with 25 and 50 µM hydroxyflavonoids and luciferase activity (normalized to β-galactosidase activity) was determined. Results were determined in triplicate for each concentration and are plotted as mean values ±SE. Significant induction or inhibition (p < 0.05) of luciferase activity is illustrated (*).
The UAS-luciferase reporter gene containing 5 GAL4 binding sites and the GAL4-NR4A1 chimera containing the GAL4 DNA-binding domain which linked to the ligand-binding domain (LBD) of NR4A1 were used in transactivation assays in Panc1 pancreatic cancer cells. Panc-1 cells were plated in a 24-well plate (3 × 10^4 cells/well) and grown for 24 h. Cells were then co-transfected with each construct (250 ng) and the β-gal expression construct (25 ng) using GeneJuice (Novagen, Madison, WI, USA) in accordance with the manufacture’s protocol. The medium was removed after 18 h and replaced with a 2.5% charcoal-stripped FBS-supplemented medium containing either DMSO or flavonoids (25 and 50 µM) in DMSO. After 24 h, cells were then lysed, and cell extracts were processed to measure luciferase activity. Luciferase activity was normalized by dividing the β-gal expression and each treatment was determined in three independent experiments. Data were expressed as mean ± SE and significant (p < 0.05) effects were noted.

In data set [3] the target is ligand-binding domain (LBD) of NR4A1 (Homo sapiens, UniProt P22736). The data set can be described thus: Direct-binding fluorescence assay (quenching of NR4A1 tryptophan fluorescence). The protocol: (§1) Tryptophan fluorescence spectra were obtained essentially as described. Briefly, the ligand-binding domain of NR4A1 at the final concentration of 0.5 µmol/L in 1.0 mL of phosphate-buffered saline (PBS, pH 7.4) was used for fluorescence measurements. The protein was incubated for 3 min at 25 °C in a temperature-controlled (Quantum Northwest TC125) fluorescence spectrophotometer (Varian Cary Eclipse). The fluorescence spectra were obtained using an excitation wavelength of 285 nm (excitation slit width = 5 nm) and an emission wavelength range of 300–420 nm (emission slit width = 5 nm). Aliquots (0.1 µL/aliquot) of the ligand (10 mmol ligand/L ethanol) were then added to the cuvette containing NR4A1 to reach a final ligand concentration of up to 60 µmol/L. After each aliquot of the ligand, the NR4A1/ligand solution was incubated at 25 °C for 3 min and the loss of tryptophan fluorescence was measured as described above. The addition of DMSO only (up to a final volume of 3.0 µL) had no effect on NR4A1 tryptophan fluorescence. […] Fluorescence intensity at each ligand concentration was used to correct the NR4A1 tryptophan fluorescence intensity as described.

The target of data set [4] is NR4A1 protein (ligand-binding domain: LBD) (Homo sapiens, UniProt P22736). In words: Isothermal titration calorimetry (ITC) binding assay.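 Note: ligand titrated into 20 µmol/L NR4A1 LBD in sodium phosphate buffer pH 7.4 with glycerol and ethanol, thirty injections, heat flow corrected for ligand-into-buffer dilution.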 For orientation: In ITC the heat of successive injections is recorded.
The nature of data set [5]: Solubility in the fluorescence assay. The following applies: aqueous. The data set is classed as physicochemical. The protocol: as §1
Data set [6] deals with T1, GAL4-NR4A1. More on the design: expressed in transfected cells; host or cells: Rh30 rhabdomyosarcoma cells; method as in PMID 34906197. The note with it: Rh30 rhabdomyosarcoma cells, same constructs, cited from earlier work.
The subject of data set [7] is rhabdomyosarcoma tumor. More on the design: method as in PMID 34906197. The following applies: athymic mouse xenograft model; cited from earlier work.
For data set [8], the system named is ERα. More on the design: method as in PMID 18095219. The following applies: cited from earlier work.
Where [9] appears, read: fluorescence (Trp quenching) assay, Table 1 head prints no unit, µM from text and Figure 5, read-out: KD, direct binding assay.
Setting [10] is: fluorescent binding assay, read-out: KD (Figure 1).

T1 sequence (P22736 360-595 limits assumed): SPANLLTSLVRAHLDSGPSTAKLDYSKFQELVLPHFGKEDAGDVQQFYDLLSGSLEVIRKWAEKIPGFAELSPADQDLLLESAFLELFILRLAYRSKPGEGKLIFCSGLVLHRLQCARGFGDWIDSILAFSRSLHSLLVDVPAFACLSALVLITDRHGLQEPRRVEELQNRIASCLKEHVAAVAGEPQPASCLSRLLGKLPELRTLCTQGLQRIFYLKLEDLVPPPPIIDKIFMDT
NR4A1 protein (ligand-binding domain: LBD), sequence (P22736 360-595 limits assumed): as above
ligand-binding domain (LBD) of NR4A1, sequence (P22736 360-595 limits assumed): as above

`O=c1cc(-c2ccc(O)c(O)c2)oc2ccccc12` [3′,4′-Dihydroxyflavone]: the “induction of luciferase activity” value in data set [1] and in data set [2] was less than 2.4 fold throughout. In addition, the Kd in data set [3] (setting [9]) was determined as 0.96 µM; in data set [4] (25 °C, read-out: ITC assay Kd1) it was 9.5 µM. In addition, the “ITC assay ΔG” value in data set [4] (25 °C) is -6.86 kcal/mol.
For the compound `O=c1cc(-c2cccc(O)c2)oc2ccccc12` [3′-Hydroxyflavone], the Kd was found to be 45.8 µM in data set [3] (setting [9]); 45.8 µM in data set [3] (setting [10]); 0.33 µM in data set [4] (25 °C, read-out: ITC assay Kd1). In addition, the “ITC assay ΔG” value in data set [4] (25 °C) was -8.84 kcal/mol.
On to `O=c1cc(-c2ccc(O)cc2)oc2ccccc12` [4′-Hydroxyflavone], for which the “effect on NR4A1-dependent transactivation” value in data set [1] is given as “potent inhibition”. Also, the “effect on luciferase activity” value in data set [2] is “significantly induced luciferase activity”. Moreover, the Kd in data set [3] (setting [9]) was 13 µM; in data set [4] (25 °C, read-out: ITC assay Kd1), 0.15 µM. In addition, in data set [4] (25 °C), the “ITC assay ΔG” value is -9.42 kcal/mol.
With `O=c1c(O)c(-c2ccccc2)oc2cc(O)cc(O)c12` [3,5,7 -Trihydroxyflavone (Galangin), 3,5,7-Trihydroxyflavone], in data set [1], the “effect on NR4A1-dependent transactivation” value is “potent inhibition”. Besides, in data set [2], the “effect on luciferase activity” value was “decreased luciferase activity”. Further, the Kd in data set [3] (setting [9]) was 0.36 µM; in data set [4] (25 °C, read-out: ITC assay Kd1), 0.001 µM. Moreover, in data set [4] (25 °C), the “ITC assay ΔG” value is -12.2 kcal/mol.
Regarding `O=c1cc(-c2ccc(O)cc2)oc2cc(O)cc(O)c12` [5,7,4′-Trihydroxyflavone (Apigenin), 5,7,4′-Trihydroxyflavone], the “effect on NR4A1-dependent transactivation” value in data set [1] is given as “decreased transactivation”. Also, the Kd in data set [3] (setting [9]) was found to be 1.77 µM; in data set [3] (setting [10]) it was 0.08 µM; in data set [4] (25 °C, read-out: ITC assay Kd1) it was 0.57 µM. In data set [4] (25 °C), the “ITC assay ΔG” value was -8.53 kcal/mol.
`O=c1cc(-c2ccccc2)oc2c(O)c(O)ccc12` [7,8-Dihydroxyflavone]: the Kd in data set [3] (setting [9]) is 17.6 µM; in data set [4] (25 °C, read-out: ITC assay Kd1) it was 0.042 µM. Besides, the “ITC assay ΔG” value in data set [4] (25 °C) is -10.1 kcal/mol.
With `O=c1cc(-c2ccc(O)c(O)c2)oc2cc(O)cc(O)c12` [5,7,3′4′-Tetrahydroxyflavone (Luteolin), 5,7,3′4′-Tetrahydroxyflavone], the “effect on luciferase activity” value in data set [2] is reported as “significantly induced luciferase activity”. Also, the Kd in data set [3] (setting [9]) was 5.1 µM; in data set [4] (25 °C, read-out: ITC assay Kd1), 0.019 µM. The “ITC assay ΔG” value in data set [4] (25 °C) was -10.5 kcal/mol.
`O=c1c(O)c(-c2ccccc2)oc2cc(O)ccc12` [3,7-Dihydroxyflavone]: the “effect on NR4A1-dependent transactivation” value in data set [1] is given as “potent inhibition”. The Kd in data set [3] (setting [9]) amounted to 2.8 µM; in data set [4] (25 °C, read-out: ITC assay Kd1) it was 0.18 µM. In addition, the “ITC assay ΔG” value in data set [4] (25 °C) is -9.2 kcal/mol.
In the case of `O=c1cc(-c2cccc(O)c2)oc2cc(O)ccc12` [7,3′-Dihydroxyflavone], the Kd in data set [3] (setting [9]) was determined as 21.4 µM; in data set [4] (25 °C, read-out: ITC assay Kd1) it was 0.17 µM. The “ITC assay ΔG” value in data set [4] (25 °C) was -9.25 kcal/mol.
`O=c1c(O)c(-c2ccccc2)oc2ccccc12` [3-Hydroxyflavone]: the solubility result is listed as “insoluble” in data set [5] and “aqueous insolubility” in data set [5] (listed as 3-hydroxyflavone). In addition, the “ITC assay ΔG” value in data set [4] (25 °C) was -10.4 kcal/mol. Further, in data set [4] (25 °C, read-out: ITC assay Kd1), the Kd stood at 0.0225 µM.
As to `O=c1c(O)c(-c2ccc(O)cc2)oc2cc(O)cc(O)c12` [3,5,7,4′-Tetrahydroxyflavone], the “effect on NR4A1-dependent transactivation” value in data set [1] is listed as “decreased transactivation”. Further, the Kd in data set [3] (setting [9]) was 3.1 µM; in data set [4] (25 °C, read-out: ITC assay Kd1), 97.1 µM. In data set [4] (25 °C), the “ITC assay ΔG” value was -5.47 kcal/mol. In data set [6] (listed as kaempferol), the “effect on luciferase activity / NR4A1-dependent transactivation (previous studies)” value is recorded as “decreased luciferase activity; also recorded: decreased NR4A1-dependent transactivation”. The tumor growth entry in data set [7] is “inhibited tumor growth”.
Take `Clc1cc(Cl)cc(C(c2c[nH]c3ccccc23)c2c[nH]c3ccccc23)c1` [DIM-3,5-CI2, 1,1-bis(3′-indolyl)-1-(3,5-dichlorophenyl)methane, reference compound]: the “effect on NR4A1-dependent transactivation” value in data set [1] was “decreased transactivation”.
For the compound `O=c1cc(-c2ccccc2)oc2cc(O)cc(O)c12` [5,7 Dihydroxyflavone], the Kd is 11.3 µM in data set [3] (setting [9]) and 0.001 µM in data set [4] (25 °C, read-out: ITC assay Kd1). Further, in data set [4] (25 °C), the “ITC assay ΔG” value was -12.3 kcal/mol.
For `O=c1c(O)c(-c2ccccc2)oc2ccc(O)cc12` [3,6-Dihydroxyflavone], in data set [1], the “effect on NR4A1-dependent transactivation” value is “potent inhibition”. Further, the Kd in data set [3] (setting [9]) came out at 0.66 µM; in data set [4] (25 °C, read-out: ITC assay Kd1), 444 µM. Besides, the “ITC assay ΔG” value in data set [4] (25 °C) was -4.57 kcal/mol.
On to `O=c1cc(-c2ccccc2)oc2ccc(O)cc12` [6-Hydroxyflavone], for which the “effect on NR4A1-dependent transactivation” value in data set [1] was “decreased transactivation”. Also, the “effect on luciferase activity” value in data set [2] is listed as “significantly induced luciferase activity”. Besides, the Kd in data set [3] (setting [9]) amounted to 12.5 µM; in data set [4] (25 °C, read-out: ITC assay Kd1), 0.032 µM. The “ITC assay ΔG” value in data set [4] (25 °C) is -10.3 kcal/mol.
`O=c1c(O)c(-c2ccc(O)c(O)c2)oc2cc(O)cc(O)c12`: the ER binding result in data set [8] was “did not bind ERα”. Besides, the “effect on NR4A1-dependent transactivation” value in data set [1] is given as “decreased transactivation”. Also, the “effect on luciferase activity” value in data set [2] is reported as “significantly induced luciferase activity”. Also, the Kd amounted to 0.81 µM in data set [3] (setting [9]) and 0.35 µM in data set [4] (25 °C, read-out: ITC assay Kd1). Moreover, the “ITC assay ΔG” value in data set [4] (25 °C) is -8.8 kcal/mol. The “effect on luciferase activity / NR4A1-dependent transactivation (previous studies)” value in data set [6] (listed as quercetin) is listed as “decreased luciferase activity; also recorded: decreased NR4A1-dependent transactivation”. Moreover, in data set [7], the tumor growth entry is “inhibited tumor growth”.
For `O=c1cc(-c2ccccc2)oc2cc(O)ccc12` [7-Hydroxyflavone], the “induction of luciferase activity” value in data set [1] and in data set [2] was less than 2.4 fold in each case. The “effect on luciferase activity” value in data set [2] is given as “significantly induced luciferase activity”. Also, the values for the Kd in data set [3] (setting [9]) and in data set [4] were 7.4 µM and 0.042 µM, respectively. Further, the “ITC assay ΔG” value in data set [4] (25 °C) was -10.1 kcal/mol.
On to `O=c1cc(-c2ccccc2)oc2cc(O)c(O)c(O)c12` [5,6,7 -Trihydroxyflavone (Baicalein), 5,6,7-Trihydroxyflavone], for which the “effect on luciferase activity” value in data set [2] is reported as “significantly induced luciferase activity”. Besides, the Kd in data set [3] (setting [9]) came out at 1.85 µM; in data set [4] (25 °C, read-out: ITC assay Kd1), 0.13 µM. Also, the “ITC assay ΔG” value in data set [4] (25 °C) was -9.42 kcal/mol.
For the compound `O=c1cc(-c2ccccc2)oc2cccc(O)c12` [5-Hydroxyflavone], the Kd in data set [3] (setting [9]) is 1.4 µM; in data set [4] (25 °C, read-out: ITC assay Kd1) it was 18 µM. Moreover, in data set [4] (25 °C), the “ITC assay ΔG” value was -6.45 kcal/mol.
The like results for `O=c1cc(-c2ccccc2)oc2ccccc12` [Flavone] were, in that order, 3.4 µM, 0.075 µM and -9.73 kcal/mol.
The like results for `O=c1cc(-c2ccc(O)cc2)oc2cc(O)ccc12` [7,4’-Dihydroxyflavone] were, in that order, 9.1 µM, 0.49 µM and -8.63 kcal/mol.
For `O=c1c(O)c(-c2ccc(O)c(O)c2)oc2cccc(O)c12` [3,5,3′,4-tetrahydroxyflavone], the “effect on NR4A1-dependent transactivation” value in data set [1] was “potent inhibition”.
